According to patent US20220009918A1, “Chemical Compounds” (GlaxoSmithKline Intellectual Property Development Limited, priority 2018, published 2022):

Molecular target: T1, human H-PGDS (Homo sapiens, UniProt O60760)
T1 construct: Full length human H-PGDS cDNA (Invitrogen Ultimate ORF IOH13026) was amplified by PCR; 6-His (N); TEV protease cleavage site (N); made in house; host or cells: E. coli BL21 (DE3*) for H-PGDS; Sf9 insect cells (baculovirus) for COX-2
Test: H-PGDS RapidFire high throughput mass spectrometry assay
Format: biochemical
Conditions: inhibition of conversion of PGH2 to PGD2 by H-PGDS
Description: H-PGDS RapidFire™ High Throughput Mass Spectrometry Assay
The H-PGDS RapidFire™ mass spectrometric assay monitors conversion of prostaglandin H2 (PGH2) to prostaglandin D2 (PGD2) by haematopoietic prostaglandin D synthase (H-PGDS). In the assay format described here, the substrate (PGH2) is formed in situ by the action of cyclooxygenase-2 on arachidonic acid. This first step is set up to be fast, and generates a burst of PGH2 at ˜10 μM. The PGH2 is then further converted to PGD2 by the H-PGDS enzyme. […] Plates are then read on the RapidFire™ high throughput solid phase extraction system (Agilent) which incorporates a solid phase extraction step coupled to a triple quadrupole mass spectrometer (AB SCIEX). Relative levels of PGD2 and PGF2α, which acts as a surrogate for substrate, are measured and a percent conversion calculated. Inhibitors are characterised as compounds which lower the conversion of PGH2 to PGD2.
Full length human H-PGDS cDNA (Invitrogen Ultimate ORF IOH13026) was amplified by PCR with the addition of a 5′ 6-His tag and TEV protease cleavage site. The PCR product was digested with NdeI and XhoI and ligated into pET22b+ (Merck Novagen®). Expression was carried out in E. coli strain BL21 (DE3*) using auto-induction Overnight Express™ Instant TB medium (Merck Novagen®) supplemented with 1% glycerol. The culture was first grown at 37° C. and the temperature was reduced to 25° C. when OD600 reached 2.0. Cells were harvested by centrifugation after a further 18 hours. 10 g of E. coli cell pellet was suspended to a total volume of 80 mL in lysis buffer (20 mM Tris-Cl pH 7.5, 300 mM NaCl, 20 mM imidazole, 5 mM p-mercaptoethanol, 10% glycerol). 1 mg/mL protease inhibitors (Protease Inhibitor Cocktail Set III, Merck Calbiochem®) and 1 mg/mL lysozyme were added to the cell suspension. The suspension was then sonicated for 5 min (UltraSonic Processor VCX 750, Cole-Parmer Instrument Co.) with a micro probe (50% amplitude, 10 sec on/off) and then centrifuged at 100,000 g for 90 minutes (at 4° C.). The supernatant was loaded onto a Ni-NTA HiTrap column (5 mL, GE Healthcare, pre-equilibrated in lysis buffer). The column was washed with 10 column volumes of lysis buffer and eluted with lysis buffer containing 500 mM imidazole. The pooled protein peak fractions were concentrated using a 10 kDa centrifugal filter at 3500 g and 4° C. (Amicon Ultra-15 centrifugal filter unit with Ultracel-10 membrane from Millipore). Further purification of the concentrated protein was carried out using gel filtration chromatography on a HiLoad 26/600 Superdex 75 preparative grade column (GE Healthcare Life Sciences) using 50 mM Tris pH 7.5, 50 mM NaCl, 1 mM dithiothreitol, 1 mM MgCl2. Fractions containing the protein were pooled, concentrated as described above, and stored at −80° C.
The full length human COX-2 gene (accession number L15326) was amplified by PCR to generate an EcoRI—HindIII fragment containing an in-frame FLAG tag. This was subcloned into pFastBac 1 (Invitrogen). The COX-2 FLAG plasmid was recombined into the baculovirus genome according to the BAC-to-BAC protocol described by Invitrogen. Transfection into Spodoptera frugiperda (Sf9) insect cells was performed using Cellfectin (Invitrogen), according to the manufacturer's protocol. Super Sf9 cells were cultured in EX420 media (SAFC Biosciences) to a density of approximately 1.5×10^6 cells/mL within a wave bioreactor. Recombinant virus was added at a Multiplicity of Infection (MOI) of 5 and the culture was allowed to continue for 3 days. Cells were harvested using a continuous feed centrifuge run at 2500 g at a rate of approximately 2 L/min with cooling. The resultant cell slurry was re-centrifuged in pots (2500 g, 20 min, 4° C.) and the cell paste was stored at −80° C. […]

T1 sequence (O60760 whole entry): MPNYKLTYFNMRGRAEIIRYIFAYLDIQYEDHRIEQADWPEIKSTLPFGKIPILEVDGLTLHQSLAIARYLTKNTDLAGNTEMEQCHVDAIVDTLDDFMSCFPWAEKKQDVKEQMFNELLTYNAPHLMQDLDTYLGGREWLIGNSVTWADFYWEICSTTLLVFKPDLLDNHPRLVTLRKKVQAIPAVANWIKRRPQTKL

SMILES	Potency Range (mean pIC50)
C[C@H]1CNC(=O)[C@H]1NC(=O)c1cnc(-c2cc(F)cc(Cl)c2)s1 (racemic) [Example 74, Racemic cis-2-(3-Chloro-5-fluorophenyl)-N-(4-methyl-2-oxopyrrolidin-3-yl)thiazole-5-carboxamide]	*** (*** = pIC50 7.00-7.99)

Same assay, conditions: inhibition of conversion of PGH2 to PGD2 by H-PGDS; mean pIC50; read-out: Potency Range (mean pIC50) (converted)

SMILES	IC50 [nM]
O=C(NC1CCNC1=O)c1cnc(-c2cccc(Cl)c2)s1 (racemic) [Example 2, Racemic 2-(3-Chlorophenyl)-N-(2-oxopyrrolidin-3-yl)thiazole-5-carboxamide]	10.2 to 100
CC1(C)CC(NC(=O)c2cnc(-c3cc(F)cc(Cl)c3)s2)C(=O)N1 (racemic) [Example 14, Racemic 2-(3-Chloro-5-fluorophenyl)-N-(5,5-dimethyl-2-oxopyrrolidin-3-yl)thiazole-5-carboxamide]	10.2 to 100
CC1(C)CC(NC(=O)c2cnc(-c3cc(F)cc(C(F)F)c3)s2)C(=O)N1 (racemic) [Example 18, Racemic 2-(3-(Difluoromethyl)-5-fluorophenyl)-N-(5,5-dimethyl-2-oxopyrrolidin-3-yl)thiazole-5-carboxamide]	10.2 to 100
O=C(NC1CC2(CC2)NC1=O)c1cnc(-c2cc(F)cc(Cl)c2)s1 (racemic) [Example 20, Racemic 2-(3-Chloro-5-fluorophenyl)-N-(5-oxo-4-azaspiro[2.4]heptan-6-Yl)thiazole-5-carboxamide]	10.2 to 100
CCC1(CC)CNC(=O)C1NC(=O)c1cnc(-c2cc(F)cc(Cl)c2)s1 (racemic) [Example 23, Racemic 2-(3-Chloro-5-fluorophenyl)-N-(4,4-diethyl-2-oxopyrrolidin-3-yl)thiazole-5-carboxamide]	102 to 1000
O=C(NC1CC2(CCC2)NC1=O)c1cnc(-c2cc(F)cc(Cl)c2)s1 (racemic) [Example 27, Racemic 2-(3-Chloro-5-fluorophenyl)-N-(6-oxo-5-azaspiro[3.4]octan-7-v)thiazole-5-carboxamide]	10.2 to 100
C[C@H]1[C@H](C)NC(=O)[C@@H]1NC(=O)c1cnc(-c2cc(F)cc(Cl)c2)s1 (racemic) [Example 34, Racemic 2-(3-Chloro-5-fluorophenyl)-N-((3R,4S,5S)-4,5-dimethyl-2-oxopyrrolidin-3-yl)thiazole-5-carboxamide; and 2-(3-Chloro-5-fluorophenyl)-N-((3S,4R,5R)-4,5-dimethyl-2-oxopyrrolidin-3-yl)thiazole-5-carboxamide]	10.2 to 100
O=C(N[C@H]1C(=O)N[C@@H]2CCC[C@@H]21)c1cnc(-c2cc(F)cc(Cl)c2)s1 (racemic) [Example 49, Racemic 2-(3-Chloro-5-fluorophenyl)-N-((3R,3aS,6aR)-2-oxooctahydrocyclopenta[b]pyrrol-3-yl)thiazole-5-carboxamide; and 2-(3-Chloro-5-fluorophenyl)-N-((3S,3aR,6aS)-2-oxooctahydrocyclopenta[b]pyrrol-3-yl)thiazole-5-carboxamide]	1.02 to 10
O=C(N[C@@H]1C(=O)N[C@H]2COC[C@H]21)c1cnc(-c2cc(F)cc(Cl)c2)s1 (racemic) [Example 52, Racemic 2-(3-Chloro-5-fluorophenyl)-N-((3S,3aR,6aR)-2-oxohexahydro-1H-furo[3,4-b]pyrrol-3-yl)thiazole-5-carboxamide; and 2-(3-Chloro-5-fluorophenyl)-N-((3R,3aS,6aS)-2-oxohexahydro-1H-furo[3,4-b]pyrrol-3-yl)thiazole-5-carboxamide]	10.2 to 100
O=C(NC1CC2(COC2)NC1=O)c1cnc(-c2cc(F)cc(Cl)c2)s1 (racemic) [Example 55, Racemic 2-(3-Chloro-5-fluorophenyl)-N-(6-oxo-2-oxa-5-azaspiro[3.4]octan-7-yl)thiazole-5-carboxamide]	1.02 to 10
O=C(N[C@H]1C(=O)N[C@H]2CCC[C@H]21)c1cnc(-c2cc(F)cc(Cl)c2)s1 (racemic) [Example 58, Racemic 2-(3-Chloro-5-fluorophenyl)-N-((3R,3aR,6aS)-2-oxooctahydrocyclopenta[b]pyrrol-3-yl)thiazole-5-carboxamide; and 2-(3-Chloro-5-fluorophenyl)-N-((3S,3aS,6aR)-2-oxooctahydrocyclopenta[b]pyrrol-3-yl)thiazole-5-carboxamide]	10.2 to 100
CN1CCC(NC(=O)c2cnc(-c3cc(F)cc(Cl)c3)s2)C1=O (racemic) [Example 63, Racemic 2-(3-Chloro-5-fluorophenyl)-N-(1-methyl-2-oxopyrrolidin-3-yl)thiazole-5-carboxamide]	10.2 to 100
CN(C(=O)c1cnc(-c2cc(F)cc(Cl)c2)s1)C1CCNC1=O (racemic) [Example 65, Racemic 2-(3-Chloro-5-fluorophenyl)-N-methyl-N-(2-oxopyrrolidin-3-yl)thiazole-5-carboxamide]	1020 to 10000
COc1ccc(CN2CCC(C)(NC(=O)c3cnc(-c4cc(F)cc(Cl)c4)s3)C2=O)cc1 (racemic) [Example 70, Racemic 2-(3-Chloro-5-fluorophenyl)-N-(1-(4-methoxybenzyl)-3-methyl-2-oxopyrrolidin-3-yl)thiazole-5-carboxamide]	102 to 1000
CC1(NC(=O)c2cnc(-c3cc(F)cc(Cl)c3)s2)CCNC1=O (racemic) [Example 71, Racemic 2-(3-Chloro-5-fluorophenyl)-N-(3-methyl-2-oxopyrrolidin-3-yl)thiazole-5-carboxamide]	102 to 1000
CC1(C)CC(NC(=O)c2cnc(-c3cc(F)cc(Cl)c3)[se]2)C(=O)N1 (racemic) [Example 82, Racemic 2-(3-Chloro-5-fluorophenyl)-N-(5,5-dimethyl-2-oxopyrrolidin-3-yl)-1,3-selenazole-5-carboxamide]	10.2 to 100
CC1(C)CC(NC(=O)c2cnc(-c3cc(F)cc(Cl)c3)s2)C(=S)N1 (racemic) [Example 83, Racemic 2-(3-Chloro-5-fluorophenyl)-N-(5,5-dimethyl-2-thioxopyrrolidin-3-yl)thiazole-5-carboxamide]	1.02 to 10
CC1(C)C[C@@H](NC(=O)c2cnc(-c3cc(F)cc(Cl)c3)s2)C(=O)N1 (single isomer, unassigned) [Example 15]	102 to 1000
O=C(N[C@H]1CCNC1=O)c1cnc(-c2cccc3ccoc23)s1 [Example 1, (S)-2-(Benzofuran-7-yl)-N-(2-oxopyrrolidin-3-yl)thiazole-5-carboxamide]	10.2 to 100
O=C(N[C@H]1CCNC1=O)c1cnc(-c2cccc(Cl)c2)s1 [Example 3, (S)-2-(3-Chlorophenyl)-N-(2-oxopyrrolidin-3-yl)thiazole-5-carboxamide]	10.2 to 100
O=C(N[C@H]1CCNC1=O)c1cnc(-c2cccc(C(F)(F)F)c2)s1 [Example 4, (S)-N-(2-Oxopyrrolidin-3-v)-2-(3-(trifluoromethyl)phenyl)thiazole-5-carboxamide]	10.2 to 100
Cc1cccc(-c2ncc(C(=O)N[C@H]3CCNC3=O)s2)c1 [Example 5, (S)-N-(2-Oxopyrrolidin-3-yl)-2-(m-tolyl)thiazole-5-carboxamide]	1.02 to 10
O=C(N[C@H]1CCNC1=O)c1cnc(-c2cc(F)cc(Cl)c2)s1 [Example 6, (S)-2-(3-Chloro-5-fluorophenyl)-N-(2-oxopyrrolidin-3-yl)thiazole-5-carboxamide]	1.02 to 10
O=C(N[C@H]1CCNC1=O)c1cnc(-c2cc(Cl)ccc2F)s1 [Example 7, (S)-2-(5-Chloro-2-fluorophenyl)-N-(2-oxopyrrolidin-3-yl)thiazole-5-carboxamide]	10.2 to 100
